Test results from patent publication US11053204B2, “Pyrimidinyloxy benzene derivatives as herbicides” (FMC Corporation, priority 2015, dated 2021).

Legend:
Format in all cases: in vivo
[1] = test system: wheat (winter wheat, Triticum aestivum); assay: Test C preemergence, plant response rating; conditions: Triticum aestivum, pre-emergence, Preemergence
How it was run: (§1)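 Pre-emergence: seeds sown in loam soil–sand blend or silt loam and sprayed with test chemicals in a non-phytotoxic solvent mixture with surfactant. Post-emergence: plants 2 to 18 cm (1- to 4-leaf stage) in peat-based potting medium, same formulation. Greenhouse 13 to 15 d; visual rating 0 (no effect) to 100 (complete control) versus controls.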

[2] = test system: corn (Zea mays); assay: Test C preemergence, plant response rating; conditions: Zea mays, pre-emergence, Preemergence
How it was run: as §1

[3] = test system: ragweed (common ragweed, Ambrosia elatior); assay: Test C preemergence, plant response rating; conditions: Ambrosia artemisiifolia, pre-emergence, Preemergence
How it was run: as §1

[4] = test system: soybean (Glycine max); assay: Test C preemergence, plant response rating; conditions: Glycine max, pre-emergence, Preemergence, scale 0 to 100
How it was run: as §1

[5] = test system: morningglory (Ipomoea coccinea); assay: Test C preemergence, plant response rating; conditions: Ipomoea, pre-emergence, Preemergence
How it was run: as §1

[6] = test system: crabgrass, large (large crabgrass, Digitaria sanguinalis); assay: Test C preemergence, plant response rating; conditions: Digitaria sanguinalis, pre-emergence, Preemergence
How it was run: as §1

[7] = test system: foxtail, giant (giant foxtail, Setaria faberii); assay: Test C preemergence, plant response rating; conditions: Setaria faberi, pre-emergence, Preemergence
How it was run: as §1

[8] = test system: nutsedge, yellow (yellow nutsedge, Cyperus esculentus); assay: Test C preemergence, plant response rating; conditions: Cyperus, pre-emergence, Preemergence
How it was run: as §1

[9] = test system: blackgrass (Alopecurus myosuroides); assay: Test C preemergence, plant response rating; conditions: Alopecurus myosuroides, pre-emergence, Preemergence
How it was run: as §1

[10] = test system: lambsquarters (Chenopodium album); assay: Test C preemergence, plant response rating; conditions: Chenopodium album, pre-emergence, Preemergence
How it was run: as §1

[11] = test system: ryegrass, Italian (Italian ryegrass, Lolium multiflorum); assay: Test C preemergence, plant response rating; conditions: Lolium multiflorum, pre-emergence, Preemergence
How it was run: as §1

[12] = test system: velvetleaf (Abutilon theophrasti); assay: Test C preemergence, plant response rating; conditions: Abutilon theophrasti, pre-emergence, Preemergence
How it was run: as §1

[13] = test system: waterhemp (common waterhemp, Amaranthus rudis); assay: Test C preemergence, plant response rating; conditions: Amaranthus tuberculatus, pre-emergence, Preemergence
How it was run: as §1

[14] = test system: oilseed rape (Brassica napus); assay: Test C preemergence, plant response rating; conditions: Brassica napus, pre-emergence, Preemergence
How it was run: as §1

[15] = test system: barnyardgrass (Echinochloa crus-galli); assay: Test B flooded paddy test, plant response rating; conditions: Echinochloa crus-galli, 312 h; 250 g ai/ha; Flood; scale of 0 to 100 where 0 is no effect and 100 is complete control; 13 to 15 days
How it was run: (§2)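 Under a constant 3 cm flood, test compounds went directly into the paddy water. Following 13 to 15 days of greenhouse growth, treated species and controls were compared by eye.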

[16] = test system: rice (Oryza sativa); assay: Test B flooded paddy test, plant response rating; conditions: Oryza sativa, 312 h; 250 g ai/ha; Flood; scale of 0 to 100 where 0 is no effect and 100 is complete control; 13 to 15 days
How it was run: as §2

[17] = test system: sedge, umbrella (small-flower umbrella sedge, Cyperus difformis); assay: Test B flooded paddy test, plant response rating; conditions: Cyperus difformis, 312 h; 250 g ai/ha; Flood; scale of 0 to 100 where 0 is no effect and 100 is complete control; 13 to 15 days
How it was run: as §2

Compound: O=C(OCCC(F)(F)F)c1c(Br)cccc1Oc1ncc(Cl)cn1 [Compound 26, 3,3,3-trifluoropropyl 2-bromo-6-[(5-chloro-2-pyrimidinyl)oxy]benzoate]
- plant injury at 125 g/ha ([1]; 125 g ai/ha, scale of 0 to 100): 15%
- plant injury at 16 g/ha ([1]; 16 g ai/ha, scale 0 to 100): 0%
- plant injury at 31 g/ha ([1]; 31 g ai/ha, scale 0 to 100): 20%
- plant injury at 62 g/ha ([1]; 62 g ai/ha, scale 0 to 100): 5%
- Corn plant response rating (crop injury, 0 = no effect, 100 = complete kill) at 62 g/ha ([2]; 62 g ai/ha, scale of 0 to 100): 25%
- Corn plant response rating (crop injury, 0 = no effect, 100 = complete kill) at 125 g/ha ([2]; 125 g ai/ha, scale of 0 to 100): 40%
- Corn plant response rating (crop injury, 0 = no effect, 100 = complete kill) at 16 g/ha ([2]; 16 g ai/ha, scale 0 to 100): 0%
- Corn plant response rating (crop injury, 0 = no effect, 100 = complete kill) at 31 g/ha ([2]; 31 g ai/ha, scale 0 to 100): 0%
- pest or weed control at 125 g/ha ([3]; 125 g ai/ha, scale of 0 to 100): 50%
- pest or weed control at 16 g/ha ([3]; 16 g ai/ha, scale 0 to 100): 20%
- pest or weed control at 31 g/ha ([3]; 31 g ai/ha, scale 0 to 100): 30%
- pest or weed control at 62 g/ha ([3]; 62 g ai/ha, scale 0 to 100): 60%
- plant injury at 31 g/ha ([4]; 31 g ai/ha): 10%
- plant injury at 62 g/ha ([4]; 62 g ai/ha): 35%
- pest or weed control at 125 g/ha ([5]; 125 g ai/ha, scale of 0 to 100): 95%
- pest or weed control at 16 g/ha ([5]; 16 g ai/ha, scale 0 to 100): 20%
- pest or weed control at 31 g/ha ([5]; 31 g ai/ha, scale 0 to 100): 10%
- pest or weed control at 62 g/ha ([5]; 62 g ai/ha, scale 0 to 100): 85%
- pest or weed control at 62 g/ha ([6]; 62 g ai/ha, scale of 0 to 100): 100%
- pest or weed control at 125 g/ha ([6]; 125 g ai/ha, scale of 0 to 100): 100%
- pest or weed control at 16 g/ha ([6]; 16 g ai/ha, scale 0 to 100): 98%
- pest or weed control at 31 g/ha ([6]; 31 g ai/ha, scale 0 to 100): 100%
- pest or weed control at 62 g/ha ([7]; 62 g ai/ha, scale of 0 to 100): 98%
- pest or weed control at 125 g/ha ([7]; 125 g ai/ha, scale of 0 to 100): 98%
- pest or weed control at 16 g/ha ([7]; 16 g ai/ha, scale 0 to 100): 95%
- pest or weed control at 31 g/ha ([7]; 31 g ai/ha, scale 0 to 100): 98%
- pest or weed control at 125 g/ha ([8]; 125 g ai/ha, scale of 0 to 100): 45%
- pest or weed control at 16 g/ha ([8]; 16 g ai/ha, scale 0 to 100): 0%
- pest or weed control at 31 g/ha ([8]; 31 g ai/ha, scale 0 to 100): 0%
- pest or weed control at 62 g/ha ([8]; 62 g ai/ha, scale 0 to 100): 15%
- pest or weed control at 62 g/ha ([9]; 62 g ai/ha, scale of 0 to 100): 90%
- pest or weed control at 125 g/ha ([9]; 125 g ai/ha, scale of 0 to 100): 90%
- pest or weed control at 16 g/ha ([9]; 16 g ai/ha, scale 0 to 100): 45%
- pest or weed control at 31 g/ha ([9]; 31 g ai/ha, scale 0 to 100): 90%
- pest or weed control at 125 g/ha ([10]; 125 g ai/ha, scale of 0 to 100): 95%
- pest or weed control at 16 g/ha ([10]; 16 g ai/ha, scale 0 to 100): 70%
- pest or weed control at 31 g/ha ([10]; 31 g ai/ha, scale 0 to 100): 85%
- pest or weed control at 62 g/ha ([10]; 62 g ai/ha, scale 0 to 100): 95%
- pest or weed control at 125 g/ha ([11]; 125 g ai/ha, scale of 0 to 100): 95%
- pest or weed control at 16 g/ha ([11]; 16 g ai/ha, scale 0 to 100): 35%
- pest or weed control at 31 g/ha ([11]; 31 g ai/ha, scale 0 to 100): 75%
- pest or weed control at 62 g/ha ([11]; 62 g ai/ha, scale 0 to 100): 85%
- pest or weed control at 125 g/ha ([12]; 125 g ai/ha, scale of 0 to 100): 100%
- pest or weed control at 16 g/ha ([12]; 16 g ai/ha, scale 0 to 100): 0%
- pest or weed control at 31 g/ha ([12]; 31 g ai/ha, scale 0 to 100): 30%
- pest or weed control at 62 g/ha ([12]; 62 g ai/ha, scale 0 to 100): 85%
- pest or weed control at 125 g/ha ([13]; 125 g ai/ha, scale of 0 to 100): 100%
- pest or weed control at 16 g/ha ([13]; 16 g ai/ha, scale 0 to 100): 100%
- pest or weed control at 31 g/ha ([13]; 31 g ai/ha, scale 0 to 100): 100%
- pest or weed control at 62 g/ha ([13]; 62 g ai/ha, scale 0 to 100): 100%
- plant injury at 125 g/ha ([14]; 125 g ai/ha, scale of 0 to 100): 100%
- plant injury at 16 g/ha ([14]; 16 g ai/ha, scale 0 to 100): 80%
- plant injury at 31 g/ha ([14]; 31 g ai/ha, scale 0 to 100): 85%
- plant injury at 62 g/ha ([14]; 62 g ai/ha, scale 0 to 100): 100%
- pest or weed control at 250 g/ha [15]: 60%
- plant injury at 250 g/ha [16]: 20%
- pest or weed control at 250 g/ha [17]: 100%
